Inhibition data for nine molecules are collected here from ChEMBL document CHEMBL5442219.

What all share (details): Compound concentration 10 µM
Assay [1] has as its target T1, Alpha-1A adrenergic receptor (Homo sapiens) (UniProt P35348).
T1 sequence (whole entry): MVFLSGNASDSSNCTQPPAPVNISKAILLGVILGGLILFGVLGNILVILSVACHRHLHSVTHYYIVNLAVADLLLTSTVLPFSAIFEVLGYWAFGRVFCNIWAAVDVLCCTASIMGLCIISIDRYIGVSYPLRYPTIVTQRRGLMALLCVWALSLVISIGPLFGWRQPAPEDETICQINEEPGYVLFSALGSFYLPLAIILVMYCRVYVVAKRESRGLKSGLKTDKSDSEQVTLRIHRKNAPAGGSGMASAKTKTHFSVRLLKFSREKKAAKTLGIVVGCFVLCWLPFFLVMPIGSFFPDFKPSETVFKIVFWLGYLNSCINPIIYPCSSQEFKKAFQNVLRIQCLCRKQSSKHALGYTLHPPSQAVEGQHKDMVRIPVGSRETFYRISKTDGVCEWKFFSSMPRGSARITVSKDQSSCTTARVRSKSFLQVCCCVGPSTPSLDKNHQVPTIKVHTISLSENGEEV
Description: PDSP Primary Binding target: ADRA1A - Compounds are tested at 10 uM concentration, plate are incubated at room temperature in the dark for 90 minutes. Reaction are stopped by vacuum filtration onto 0.3% polyethyleneimine soaked filter mats using Filtermate harvester. Scintilation cocktail is then melted onto microwave-dried filters on a hot plate and the radio activity is counted in Microbia counter.

In assay [2] the target is T2, Alpha-2A adrenergic receptor (Homo sapiens) (UniProt P08913).
T2 sequence (whole entry): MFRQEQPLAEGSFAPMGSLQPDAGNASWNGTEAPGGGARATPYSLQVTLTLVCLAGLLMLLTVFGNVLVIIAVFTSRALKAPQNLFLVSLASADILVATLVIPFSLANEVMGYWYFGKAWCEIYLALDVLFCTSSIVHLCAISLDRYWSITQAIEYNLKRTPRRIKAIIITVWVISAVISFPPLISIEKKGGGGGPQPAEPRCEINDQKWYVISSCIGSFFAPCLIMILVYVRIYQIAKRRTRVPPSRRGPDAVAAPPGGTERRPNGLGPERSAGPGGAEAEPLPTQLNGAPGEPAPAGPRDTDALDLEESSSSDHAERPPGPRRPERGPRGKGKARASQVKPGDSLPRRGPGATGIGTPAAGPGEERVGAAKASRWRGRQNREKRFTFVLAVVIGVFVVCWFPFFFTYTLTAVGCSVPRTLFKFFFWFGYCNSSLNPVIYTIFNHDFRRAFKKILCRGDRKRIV
Description: PDSP Primary Binding target: ADRA2A - Compounds are tested at 10 uM concentration, plate are incubated at room temperature in the dark for 90 minutes. Reaction are stopped by vacuum filtration onto 0.3% polyethyleneimine soaked filter mats using Filtermate harvester. Scintilation cocktail is then melted onto microwave-dried filters on a hot plate and the radio activity is counted in Microbia counter.

Assay [3] addresses T3, Muscarinic acetylcholine receptor M5 (Homo sapiens) (UniProt P08912).
T3 sequence (whole entry): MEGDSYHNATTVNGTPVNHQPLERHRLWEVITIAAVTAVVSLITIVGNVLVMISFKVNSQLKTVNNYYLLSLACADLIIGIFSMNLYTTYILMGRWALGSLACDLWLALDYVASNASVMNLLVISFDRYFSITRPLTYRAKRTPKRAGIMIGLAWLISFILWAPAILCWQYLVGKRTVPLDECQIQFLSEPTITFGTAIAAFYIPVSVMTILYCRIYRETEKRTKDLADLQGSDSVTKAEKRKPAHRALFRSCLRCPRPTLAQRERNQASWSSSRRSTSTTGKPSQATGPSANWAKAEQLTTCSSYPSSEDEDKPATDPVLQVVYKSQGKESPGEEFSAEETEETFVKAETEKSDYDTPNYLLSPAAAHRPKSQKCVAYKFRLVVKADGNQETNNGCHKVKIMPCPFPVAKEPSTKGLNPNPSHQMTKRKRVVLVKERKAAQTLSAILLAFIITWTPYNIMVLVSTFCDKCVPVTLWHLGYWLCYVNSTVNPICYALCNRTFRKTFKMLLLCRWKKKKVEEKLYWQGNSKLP
Description: PDSP Primary Binding target: CHRM5 - Compounds are tested at 10 uM concentration, plate are incubated at room temperature in the dark for 90 minutes. Reaction are stopped by vacuum filtration onto 0.3% polyethyleneimine soaked filter mats using Filtermate harvester. Scintilation cocktail is then melted onto microwave-dried filters on a hot plate and the radio activity is counted in Microbia counter.

Assay [4] concerns the target 5-hydroxytryptamine receptor 1E (Homo sapiens) (UniProt P28566).
Description: PDSP Primary Binding target: HTR1E - Compounds are tested at 10 uM concentration, plate are incubated at room temperature in the dark for 90 minutes. Reaction are stopped by vacuum filtration onto 0.3% polyethyleneimine soaked filter mats using Filtermate harvester. Scintilation cocktail is then melted onto microwave-dried filters on a hot plate and the radio activity is counted in Microbia counter.
The target in assay [5] is T4, 5-hydroxytryptamine receptor 3A (Homo sapiens) (UniProt P46098).
T4 sequence (whole entry): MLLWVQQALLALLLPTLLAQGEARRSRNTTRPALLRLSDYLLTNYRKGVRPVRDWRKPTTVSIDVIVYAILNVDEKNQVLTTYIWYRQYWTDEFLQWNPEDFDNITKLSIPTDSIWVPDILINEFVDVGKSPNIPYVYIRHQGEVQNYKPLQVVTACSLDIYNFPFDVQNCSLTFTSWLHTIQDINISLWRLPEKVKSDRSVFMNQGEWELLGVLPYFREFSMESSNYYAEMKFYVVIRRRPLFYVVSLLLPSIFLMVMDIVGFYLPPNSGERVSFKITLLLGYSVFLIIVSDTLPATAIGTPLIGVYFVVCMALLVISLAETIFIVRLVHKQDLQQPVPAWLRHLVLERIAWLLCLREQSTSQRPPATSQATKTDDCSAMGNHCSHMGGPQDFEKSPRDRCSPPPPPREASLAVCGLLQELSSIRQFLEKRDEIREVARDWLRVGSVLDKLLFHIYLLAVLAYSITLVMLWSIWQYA
Description: PDSP Primary Binding target: HTR3A - Compounds are tested at 10 uM concentration, plate are incubated at room temperature in the dark for 90 minutes. Reaction are stopped by vacuum filtration onto 0.3% polyethyleneimine soaked filter mats using Filtermate harvester. Scintilation cocktail is then melted onto microwave-dried filters on a hot plate and the radio activity is counted in Microbia counter.

The target of assay [6] is 5-hydroxytryptamine receptor 6 (Homo sapiens) (UniProt P50406).
5-hydroxytryptamine receptor 6 (Homo sapiens), sequence (P50406 whole entry): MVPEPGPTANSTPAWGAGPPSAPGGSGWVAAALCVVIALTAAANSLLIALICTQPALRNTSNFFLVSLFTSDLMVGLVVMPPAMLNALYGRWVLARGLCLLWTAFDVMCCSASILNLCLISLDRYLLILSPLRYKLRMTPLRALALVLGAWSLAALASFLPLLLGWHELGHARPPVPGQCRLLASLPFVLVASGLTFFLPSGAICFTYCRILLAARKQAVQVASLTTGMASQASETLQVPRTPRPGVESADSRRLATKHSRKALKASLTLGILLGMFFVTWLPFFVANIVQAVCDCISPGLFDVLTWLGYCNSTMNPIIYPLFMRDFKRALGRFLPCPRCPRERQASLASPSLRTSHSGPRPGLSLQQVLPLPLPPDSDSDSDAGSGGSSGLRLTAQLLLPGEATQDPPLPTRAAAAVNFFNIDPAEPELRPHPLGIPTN
Description: PDSP Primary Binding target: HTR6 - Compounds are tested at 10 uM concentration, plate are incubated at room temperature in the dark for 90 minutes. Reaction are stopped by vacuum filtration onto 0.3% polyethyleneimine soaked filter mats using Filtermate harvester. Scintilation cocktail is then melted onto microwave-dried filters on a hot plate and the radio activity is counted in Microbia counter.
In assay [7] the target is Sigma intracellular receptor 2 (Homo sapiens) (UniProt Q5BJF2).
Sigma intracellular receptor 2 (Homo sapiens), sequence (Q5BJF2 whole entry): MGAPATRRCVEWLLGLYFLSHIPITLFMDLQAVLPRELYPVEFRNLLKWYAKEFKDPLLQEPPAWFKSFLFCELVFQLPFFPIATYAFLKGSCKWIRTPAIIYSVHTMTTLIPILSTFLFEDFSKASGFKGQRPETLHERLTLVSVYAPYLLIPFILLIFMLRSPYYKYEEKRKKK
Description: PDSP Primary Binding target: TMEM97 - Compounds are tested at 10 uM concentration, plate are incubated at room temperature in the dark for 90 minutes. Reaction are stopped by vacuum filtration onto 0.3% polyethyleneimine soaked filter mats using Filtermate harvester. Scintilation cocktail is then melted onto microwave-dried filters on a hot plate and the radio activity is counted in Microbia counter.
The target in assay [8] is Beta-3 adrenergic receptor (Homo sapiens) (UniProt P13945).
Beta-3 adrenergic receptor (Homo sapiens), sequence (P13945 whole entry, looked up): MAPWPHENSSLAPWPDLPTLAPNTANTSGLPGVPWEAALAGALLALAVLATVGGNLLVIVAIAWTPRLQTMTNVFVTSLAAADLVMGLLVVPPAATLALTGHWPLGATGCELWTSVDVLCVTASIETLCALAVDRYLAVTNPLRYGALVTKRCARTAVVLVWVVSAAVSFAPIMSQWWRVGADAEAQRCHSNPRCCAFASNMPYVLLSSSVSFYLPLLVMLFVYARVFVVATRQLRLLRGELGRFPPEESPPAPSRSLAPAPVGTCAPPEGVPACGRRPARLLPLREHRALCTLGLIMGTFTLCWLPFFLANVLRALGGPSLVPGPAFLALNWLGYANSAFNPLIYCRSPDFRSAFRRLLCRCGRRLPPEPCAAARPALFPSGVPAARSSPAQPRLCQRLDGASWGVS
Description: PDSP Primary Binding target: ADRB3 - Compounds are tested at 10 uM concentration, plate are incubated at room temperature in the dark for 90 minutes. Reaction are stopped by vacuum filtration onto 0.3% polyethyleneimine soaked filter mats using Filtermate harvester. Scintilation cocktail is then melted onto microwave-dried filters on a hot plate and the radio activity is counted in Microbia counter.
For assay [9], the target named is T5, 5-hydroxytryptamine receptor 2C (Homo sapiens) (UniProt P28335).
T5 sequence (whole entry): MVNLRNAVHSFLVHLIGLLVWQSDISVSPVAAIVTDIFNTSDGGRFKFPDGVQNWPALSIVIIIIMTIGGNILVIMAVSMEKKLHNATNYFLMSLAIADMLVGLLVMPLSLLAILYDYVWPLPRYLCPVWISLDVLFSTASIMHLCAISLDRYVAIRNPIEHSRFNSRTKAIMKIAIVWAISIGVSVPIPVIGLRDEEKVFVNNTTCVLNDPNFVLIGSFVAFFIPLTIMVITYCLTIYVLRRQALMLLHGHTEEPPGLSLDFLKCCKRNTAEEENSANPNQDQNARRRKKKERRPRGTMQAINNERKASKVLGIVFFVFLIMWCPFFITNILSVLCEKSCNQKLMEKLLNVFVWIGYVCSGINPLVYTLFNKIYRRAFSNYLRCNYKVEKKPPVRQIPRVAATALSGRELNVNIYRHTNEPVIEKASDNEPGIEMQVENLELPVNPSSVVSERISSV
Description: PDSP Primary Binding target: HTR2C - Compounds are tested at 10 uM concentration, plate are incubated at room temperature in the dark for 90 minutes. Reaction are stopped by vacuum filtration onto 0.3% polyethyleneimine soaked filter mats using Filtermate harvester. Scintilation cocktail is then melted onto microwave-dried filters on a hot plate and the radio activity is counted in Microbia counter.

The target in assay [10] is Sodium-dependent noradrenaline transporter (Homo sapiens) (UniProt P23975).
Sodium-dependent noradrenaline transporter (Homo sapiens), sequence (P23975 whole entry): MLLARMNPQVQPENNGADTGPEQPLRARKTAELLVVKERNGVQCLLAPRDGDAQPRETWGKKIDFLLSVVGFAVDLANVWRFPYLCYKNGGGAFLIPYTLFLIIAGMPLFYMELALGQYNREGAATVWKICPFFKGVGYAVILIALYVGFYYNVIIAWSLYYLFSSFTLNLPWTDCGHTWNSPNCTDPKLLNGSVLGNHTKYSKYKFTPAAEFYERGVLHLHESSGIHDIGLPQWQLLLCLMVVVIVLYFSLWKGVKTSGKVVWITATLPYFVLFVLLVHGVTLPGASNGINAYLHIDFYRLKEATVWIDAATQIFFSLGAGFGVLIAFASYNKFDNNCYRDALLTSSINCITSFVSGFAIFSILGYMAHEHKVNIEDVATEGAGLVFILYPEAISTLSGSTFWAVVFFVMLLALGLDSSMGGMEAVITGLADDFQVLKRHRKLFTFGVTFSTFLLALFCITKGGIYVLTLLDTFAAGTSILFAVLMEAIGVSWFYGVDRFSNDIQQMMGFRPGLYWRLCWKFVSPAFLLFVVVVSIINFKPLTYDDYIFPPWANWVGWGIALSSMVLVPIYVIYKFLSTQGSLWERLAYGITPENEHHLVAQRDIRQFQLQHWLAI
Description: PDSP Primary Binding target: SLC6A2 - Compounds are tested at 10 uM concentration, plate are incubated at room temperature in the dark for 90 minutes. Reaction are stopped by vacuum filtration onto 0.3% polyethyleneimine soaked filter mats using Filtermate harvester. Scintilation cocktail is then melted onto microwave-dried filters on a hot plate and the radio activity is counted in Microbia counter.
Assay [11] has as its target 5-hydroxytryptamine receptor 7 (Homo sapiens) (UniProt P34969).
Description: PDSP Primary Binding target: HTR7 - Compounds are tested at 10 uM concentration, plate are incubated at room temperature in the dark for 90 minutes. Reaction are stopped by vacuum filtration onto 0.3% polyethyleneimine soaked filter mats using Filtermate harvester. Scintilation cocktail is then melted onto microwave-dried filters on a hot plate and the radio activity is counted in Microbia counter.

SMILES strings stand for the structures.

5-hydroxytryptamine receptor 1E (Homo sapiens), sequence (P28566 whole entry): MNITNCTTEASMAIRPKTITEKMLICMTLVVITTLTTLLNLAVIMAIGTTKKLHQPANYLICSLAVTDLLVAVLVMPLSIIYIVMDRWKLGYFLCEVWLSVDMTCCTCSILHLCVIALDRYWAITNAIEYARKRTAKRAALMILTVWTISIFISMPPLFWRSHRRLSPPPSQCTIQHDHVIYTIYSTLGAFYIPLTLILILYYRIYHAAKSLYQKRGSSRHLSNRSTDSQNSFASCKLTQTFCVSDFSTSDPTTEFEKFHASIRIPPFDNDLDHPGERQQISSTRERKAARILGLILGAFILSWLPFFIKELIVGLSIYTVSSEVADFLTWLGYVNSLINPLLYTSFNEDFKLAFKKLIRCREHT
5-hydroxytryptamine receptor 7 (Homo sapiens), sequence (P34969 whole entry): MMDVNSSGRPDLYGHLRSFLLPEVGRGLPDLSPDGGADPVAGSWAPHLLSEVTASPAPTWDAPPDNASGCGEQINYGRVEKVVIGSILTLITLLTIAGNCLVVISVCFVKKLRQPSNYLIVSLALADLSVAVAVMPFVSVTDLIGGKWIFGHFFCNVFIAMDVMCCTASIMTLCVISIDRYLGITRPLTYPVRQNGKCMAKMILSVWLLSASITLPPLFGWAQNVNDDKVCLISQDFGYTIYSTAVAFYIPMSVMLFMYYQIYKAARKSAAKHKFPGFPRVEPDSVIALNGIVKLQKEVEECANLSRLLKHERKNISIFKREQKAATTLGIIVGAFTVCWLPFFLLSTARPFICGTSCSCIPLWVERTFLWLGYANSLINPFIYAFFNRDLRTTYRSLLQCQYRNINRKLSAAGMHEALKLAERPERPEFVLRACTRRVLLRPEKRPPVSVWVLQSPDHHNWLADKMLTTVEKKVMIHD

A word on the inhibition: it is the change of the read-out against control, counted positive when it falls. In the case of `CCc1cc2c(c(CC)n1)CCC(=O)N2Cc1ccc(-c2ccccc2-c2nnn[nH]2)cc1`, the inhibition was 18.5% in [1]; -6.38% in assay [2]; -1.14% in assay [3]; -6.23% in assay [4]; 8.33% in assay [5]; 10.1% in [6]. Moreover, the inhibition was 8.89% in assay [7] and 9.68% in assay [8].
With `Cc1cc(NC(=O)Nc2ccc(N(C)C)cc2)c2cc(F)cc(F)c2n1`, the inhibition in [1] is 3.42%; in [3] it was 39.2%; in assay [4], -4.12%; in assay [9], 20.1%; in [5], 7.73%; in [10] it was 35.9%. Moreover, the inhibition was 1.52% in assay [7] and 18.1% in [8].
On to `CCc1cc(C(C)=O)c(O)cc1OCCCCCC(C)(C)c1nn[nH]n1`, for which the inhibition is 8.06% in assay [1]; 14% in assay [2]; 47.9% in [3]; 0.93% in assay [9]; -9.38% in assay [5]; 8.17% in assay [6]. In addition, the inhibition in assay [8] was 0.68%.
For `c1ccc(N2CCN(Cc3nc4ccccc4[nH]3)CC2)nc1`, the inhibition in [1] was 6.23%; in [3], -1.59%; in [4], 6.29%; in [9] it was -9.96%; in assay [5] it was -2.37%; in assay [6], -0.41%. The values for the inhibition in assay [11], in assay [7] and in assay [8] were 33.7%, 1.4% and 17.4%, respectively.
On to `C[C@H](Cc1cc2c(c(C(N)=O)c1)N(CCCO)CC2)NCCOc1ccccc1OCC(F)(F)F`, for which the inhibition was 90.7% in assay [1]; 84.6% in [2]; -4.65% in assay [4]; 1.73% in assay [5]; 83.6% in assay [11]; -2.22% in assay [10]. The inhibition is 17.6% in [7] and 11% in assay [8].
For `CCCCC#Cc1nc(NC)c2ncn([C@@H]3O[C@H](CO)[C@@H](O)[C@H]3O)c2n1`, the inhibition in assay [1] is -3.3%; in assay [3], 20%; in [4] it was 18.8%; in assay [9], 17.8%; in assay [5], 14.1%; in assay [6] it was 2.49%. Also, the inhibition in assay [7] is 8.59%; in [8], -8.99%.
Take `C/C(=N\NC(=O)[C@@H]1C(=O)NC[C@H]1c1ccccc1)c1cccc(Br)c1`: the inhibition in assay [1] is 4.55%; in assay [9], 33.4%; in assay [5], -4.26%; in [6], 7.94%; in assay [11], 8.23%; in assay [10], 11.2%. The inhibition in assay [7] is 4.05%; in assay [8], 3.81%.
With `COc1ccc(Br)cc1S(=O)(=O)NC(=O)/C=C/c1ccccc1Cc1ccc2ccccc2c1`, the inhibition in assay [1] is 17.8%; in [3] it was 16.9%; in [4], 1.84%; in assay [9], 26.2%; in [5] it was 3.03%; in assay [6], -2.73%. In addition, the inhibition in assay [10] was -0.94%; in assay [7], 5.53%; in assay [8], 33.2%.
With `O=C(Cc1ccccc1)Nc1nc2ccc(Cl)cc2c2nc(-c3ccco3)nn12`, the inhibition was 10.4% in assay [1]; 3.62% in [2]; -3.93% in [3]; 7.51% in assay [4]; -5.69% in assay [9]; -2.97% in assay [6]. Further, the inhibition is -6.09% in assay [10], -6.83% in assay [7] and -9.26% in assay [8].
